Counter-ions that a name gives are not always drawn. Like-named read-outs stand apart in the source and are kept apart here.
Legend:
[1] = tested on: primary mouse embryonic fibroblasts (MEF); type: cell-based
Procedure: (§1) Cells were washed with ice-cold phosphate-buffered saline (PBS) and scraped into 0.5 ml of methanol/water (1:1, vol:vol) containing the internal standards listed below. Protein concentrations were measured using the BCA protein assay (Pierce, Rockford, Ill., USA). Lipids were extracted with chloroform/methanol (2:1, vol:vol; 1.0 mL). The organic phases were collected, dried under nitrogen and dissolved in methanol for LC/MS analyses.
(§2) Helium was used as collision gas. […] Mobile phase composition was as described above.
(§3) Mouse embryonic fibroblasts (MEFs) were prepared from mice embryo as previously reported. Briefly, pregnant mice at day 13 post coitum were sacrificed and the uteri were dissected out. Each embryo was separated from the placenta and the head and visceral tissues were removed. The remaining body was minced in PBS and incubated with 0.1 mM trypsin/1 mM EDTA at 37° C. for 15 min. Two volumes of Dulbecco's Modified Eagle Medium (DMEM) containing 10% fetal bovine serum (FBS) was added and stood for 5 minutes to settle down large pieces of unbroken tissues. The supernatant was then removed and centrifuged at 200×g for 5 min and suspended in fresh DMEM containing 10% FBS. Cells were cultured at 37° C. with 5% CO2.

[2] = tested on: primary mouse embryonic fibroblasts (MEF); experiment: ROS production in MEF (CM-H2DCFDA); type: cell-based; conditions: CYP inhibitors with methamphetamine
Procedure: Production of ROS was measured using the fluorescent probe CM-H2DCFDA (Invitrogen). This carboxy derivative of fluorescein carries additional negative charges that improve its retention compared to noncarboxylated forms. For these experiments, MEFs were grown in DMEM without phenol red, for which anti-oxidative properties have been reported. Cells were plated to subconfluence in 12-well plates, washed 3 times with pre-warmed PBS and loaded for 30 min at 37° C./5% CO2 with […] CM-H2DCFDA in DMEM without phenol red (loading medium). Then the loading medium was removed and pre-warmed fresh medium containing the different CYP450 inhibitors in presence or absence of methamphetamine was added. Fluorescence (excitation at 485 nm, emission at 530 nm) was analyzed immediately, cells were incubated at 37° C./5% CO2, and fluorescence was analyzed at the indicated time points. ROS rate versus control (%) was calculated subtracting the percentage of ROS increasing from time zero in the methamphetamine-treated samples to the percentage of ROS increasing from time zero in vehicle-treated samples.

[3] = tested on: cytochrome P450 (CYP); experiment: Cell-associated methamphetamine content in MEF with CYP inhibitor (LC/MS); conditions: methamphetamine 1 mM 24 h, inhibitor 1-10 μM
[4] = tested on: ceramide synthase (CerS); experiment: Methamphetamine self-administration in rats: ceramide synthase activity in tissue; type: in vivo, rat; conditions: self-administering rats; data not shown
Procedure: (§4) Fresh rat tissues were collected in 1 ml of homogenization buffer (25 mM HEPES, pH 7.4, containing 5 mM EGTA, 50 mM NaF, and complete mini EDTA-free protease inhibitor). Tissues were disrupted using pulse homogenizer, and centrifuged at 800×g for 5 min. The postnuclear supernatant was centrifuged at 250,000×g for 30 min at 4° C. in ultracentrifuge. The microsomal membrane pellet was resuspended in 250-500 μl of homogenization buffer. Protein concentration was measured using the BCA protein assay (Pierce, Rockford, Ill.).
(§5) Ceramide synthase activity was measured at 37° C. for 1 hr in HEPES buffer (20 mM, pH 7.4) containing 2 mM MgCl2, fatty acid-free bovine serum albumin (20 μmol) membrane proteins (0.05-0.1 mg), using dihydrosphingosine (sphinganine d17:0, 20 μmol) and palmitoyl-coenzyme A (70 μmol) as substrates. The reactions were stopped by adding chloroform-methanol (2:1, v/v) containing C12:0 ceramide (d18:1/12:0) as an internal standard. Lipid extracts were dried under nitrogen and reconstituted in chloroform-methanol (1:3, v/v; 0.1 ml) for LC-MS analyses. Products of reaction were measured using an Agilent 1100-LC system coupled to ion-trap XCT and interfaced with ESI (Agilent Technologies). […] For quantification purposes, we monitored the ions at m/z 526.5>508.5 for C17:0 dihydroceramide (d17:0/16:0) and m/z 482.5>464.5>264.3 for C12:0 ceramide (d18:1/12:0).

[5] = tested on: ceramide synthase (CerS); experiment: Acute methamphetamine administration in rats: ceramide synthase activity; type: in vivo, rat; conditions: non-contingent methamphetamine administration; data not shown
Procedure: Three groups of rats were used for these experiments. […] Other details are the same as for group 1.
as §4
as §5, with “Lipid extracts were dried under nitrogen and reconstituted in chloroform-methanol (1:3, v/v; 0.1 ml) for LC-MS analyses.” left out

[6] = tested on: isolated mitochondria from primary MEF; experiment: Lipid analysis of isolated mitochondria from MEF; type: cell-based, mouse; conditions: methamphetamine 1 mM
Procedure: as §1, §2, §3

[7] = tested on: primary mouse embryonic fibroblasts (MEF); experiment: Gene expression in MEF; type: cell-based
Procedure: Total RNA was extracted from frozen tissues using TRIzol reagent (Invitrogen, Carlsbad, Calif.) and was purified with the RNeasy mini kit (Qiagen, Valencia, Calif.). First-strand complementary DNAs were synthesized using SuperScript II RNaseH reverse transcriptase (Invitrogen). Reverse transcription of total RNA (2 μg) was carried out using oligo(dT)12-18 primers for 50 min at 42° C. mRNA levels were measured by quantitative real-time polymerase chain reaction (RT-PCR) with a Mx 3000P system (Stratagene, La Jolla, Calif.). The following list of primers and fluorogenic probes purchased from Applied Biosystems (TaqMan Gene Expression Assays, Foster City, Calif.): Ceramide Synthase 1 (Rn01420081_m1), Ceramide Synthase 2 (Rn01762789_m1), Ceramide Synthase 4 (Rn01767402_m1), Ceramide Synthase 5 (Rn01532864_m1), Ceramide Synthase 6 (Rn01270930_m1), Interleukin-6 (Rn01410330_m1). mRNA levels were normalized using beta actin, 18S ribosomal protein or glyceraldehyde-3-phosphate dehydrogenase as internal standards. Additional PCR primers were designed using Primer 3 (https://www.Frodo.wit.mit.edu), and the sequences are shown in S.Table XXX.
as §3

[8] = tested on: primary mouse embryonic fibroblasts (MEF); type: cell-based; conditions: 1 mM, 48 h
Procedure: Detection of senescence-associated β-galactosidase staining was performed as previously reported. Briefly, we plated MEFs on Lab-Tek chamber slides at a density of 5×10^4 cells per chamber. Next day, cells were treated with the indicated dose of drug for 48 hours. Cells were washed twice with PBS and fixed in 2% formaldehyde/0.2% glutaraldehyde for five minutes at room temperature. After two PBS washes the slides were incubated with fresh β-galactosidase stain solution (1 mg/mL 5-bromo-4-chloro-3-indoyl β-D-galactoside (X-Gal) 40 mM sodium phosphate, pH 6.0, 5 mM potassium ferrocyanide, 5 mM potassium ferricyanide, 150 mM NaCl, and 2 mM MgCl2) at 37° C. for 12-16 hours. Slides were washed with PBS and mounted with DAPI containing media. Images were taken for the β-gal staining and overlapped with fluorescent images taken of the same region to count the number of cells staining positive for β-gal (Nikon Eclipse E600). More than 200 cells from 5 different regions of a slide were counted in a blind fashion.

[9] = tested on: primary mouse embryonic fibroblasts (MEF); experiment: Crystal violet staining, cell morphology; type: cell-based; conditions: 48 h, 1 mM, passage 2
Procedure: To study cell morphology, cells were plated and treated in 6-well plates. After fixation, with 4% paraformaldehyde cells were stained with crystal violet (0.5% crystal violet in methanol:PBS, 1:1, v/v). After thorough wash in tap water, images were taken using a Westover Scientific Series 8 microscope.

[10] = tested on: primary mouse embryonic fibroblasts (MEF); experiment: Population doubling; type: cell-based; conditions: 1 mM; compared to control cells
Procedure: We plated 1×10^6 cells on a 60 mm dishes and treated them with 1 mM methamphetamine. Cells were trypsinized and re-plated at the same density (1×10^6 cells/dish) every 3 days for 6 passages. Population doublings were calculated according to the formula log (final cell number/plated cell number/log 2).

[11] = tested on: primary mouse embryonic fibroblasts (MEF); experiment: DNA replication assay ([3H]thymidine); conditions: 48 h, 1 mM
[12] = tested on: de novo ceramide biosynthesis; experiment: Acute methamphetamine administration in rats: tissue lipid levels
Procedure: Forty-six male Sprague-Dawley rats (Charles River, Wilmington, Mass.), weighing approximately 360-420 g were used in these experiments.
Three groups of rats were used for these experiments. Group 1: On the day of the experiment, rats received two i.p. injections of methamphetamine, 10 mg/kg (n=6), or saline (n=6) every 2 h. Two hours after the last administration of methamphetamine or saline, rats were euthanized by decapitation. Brain, liver, kidney (left), heart, skin (hind paw), skeletal muscle (vastus lateralis muscle) were harvested. Brains and livers were snap-frozen in isopentane and other tissues were snap-frozen in liquid nitrogen and stored at −80° C. Group 2: On the day of the experiment, rats received two i.p. injections of methamphetamine, 1.5 mg/kg (n=6), or saline (n=6) every 2 h. Other details are the same as for group 1. Group 3: On the day of the experiment, five rats received two i.p. injections of 1.5 mg/kg methamphetamine every 2 h; five rats received two i.p. injections of 5 mg/kg methamphetamine every 2 h; six rats received two i.p. injections of 10 mg/kg D-methamphetamine every 2 h, and six rats received two i.p. injections of saline every 2 h. Two hours after the last injection, blood was collected by cardiac puncture under isoflurane anesthesia and immediately afterwards brain, skeletal muscle and skin were harvested and handled as described for group 1.
Briefly, frozen brain samples were weighed and homogenized in cold methanol containing appropriate internal standards (listed below). Lipids were extracted by adding chloroform and water (2/1, vol/vol) and fractionated through open-bed silica gel columns by progressive elution with chloroform/methanol mixtures. Fractions eluted from the columns were dried under nitrogen, reconstituted in chloroform/methanol (1:4, vol/vol; 0.1 ml) and subjected to LC/MS.
Sphingolipid molecular species were analyzed by tandem mass spectrometry, using an Agilent 1100 liquid chromatography coupled to an ESI-ion-trap XCT mass detector. Dihydroceramides and ceramides were separated on a Poroshell 300 SB C18 column (2.1×75 mm i.d., 5 μm; Agilent Technologies) maintained at 30° C. […] Extracted ion chromatograms were used to quantify the following ceramides: d18:1/16:0 [M+H]^+ (m/z=538.5>520.5>264.3), d18:0/16:0 [M+H]^+ (m/z=540.5>522.5), d18:1/18:0 [M+H]^+ (m/z=566.5>548.5>264.3), d18:0/18:0 [M+H]^+ (m/z=568.5>550.5), d18:1/24:0 [M+H]^+ (m/z=650.6>632.8>2643), d18:0/24:0 [M+H]^+ (m/z=652.6>634.8), d18:1/24:1 [M+H]^+ (m/z=648.6>630.8>264.3), d18:0/24:1 [M+H]^+ (m/z=650.6>632.8), using d18:1/12:0 [M+H]^+ (m/z=482.5>464.5>264.3) as an internal standard. […]

[13] = tested on: ceramide content and IL-6 and p21 mRNA; experiment: Acute experiment in mice: methamphetamine alone or in combination with L-CS; conditions: acute treatment with methamphetamine alone
[14] = tested on: de novo ceramide biosynthesis; experiment: Methamphetamine self-administration in rats: lipidomic analysis of tissues by LC/MS
Procedure: Male Sprague-Dawley rats (Charles River, Wilmington, Mass.), weighing approximately 360-440 g at the beginning of the self-administration experiment, were individually housed in a temperature- and humidity-controlled environment under a reversed lighting 12-h light/dark cycle (lights on at 7:00 p.m.). The rats were allowed free access to food (NIH07 biscuits) in their home cage throughout the study. Water was available ad libitum in the home cage and in the testing chamber. Rats were tested in the light phase. They were experimentally and drug naïve at the beginning of this study.
Each of eighteen standard operant-conditioning chambers (Coulbourn Instruments, Lehigh Valley, Pa.) contained a white house light and two holes with nose-poke operanda on either side of a food trough. Upon activation, each nose poke produced a brief feedback tone. […] The tubing was attached to a syringe pump (Harvard Apparatus, South Natick, Mass.), which was programmed to deliver 2-s injections. The injected volume was adjusted for every animal to deliver a methamphetamine dose of 0.1 mg/kg/injection. Experimental events were controlled by microcomputers using MED Associates interfaces and software (Med Associates Inc., East Fairfield, Vt.).
Silastic catheter was implanted into the external jugular vein under anesthesia with a mixture of ketamine and xylazine (60 and 10 mg/kg i.p., respectively). Catheter exited the skin behind the ear. After catheter implantation, a nylon bolt glued to an acrylic mesh was implanted subcutaneously in the midscapular region. The nylon bolt served as a tether, preventing the catheter from being pulled out during self-administration sessions. Following surgery, the IV catheter was flushed daily during the first week with 0.2-0.3 ml of solution containing cephalosporin (100 mg/ml; Cefazolin For Injection, USP; Hospira Inc., Lake Forest, Ill., USA) and then flushed before and after each daily session with saline to maintain its patency) and then flushed after each daily session with saline to maintain its patency.
Each experimental group was divided into two subgroups that were tested simultaneously. One subgroup served as yoked controls and passively received an injection of saline (which was not contingent on responding) each time a response-contingent injection of 0.1 mg/kg methamphetamine was actively self-administered by the first subgroup of rats. […] The first experimental groups consisted of 12 rats self-administering methamphetamine and 6 yoked control rats. The second experimental group consisted of 9 rats self-administering methamphetamine and 9 yoked control rats. The third experimental group consisted of 16 rats self-administering methamphetamine and 8 yoked control rats. […] The pretreatment with L-CS was always given immediately before and after each session and the catheter was flushed with 0.5 ml of saline afterwards. Before and after sessions 4 and 5 animals received dose 10 mg/kg of L-CS and before and after sessions 6, 7, and 8 they received dose 20 mg/kg of L-CS. The animals received total dose 160 mg/kg of L-CS during the experiment.
Eight consecutive 15-hour sessions were conducted between 4 p.m. and 8 a.m. Rats and the food in the feeders were weighed before the start of each session. At the start of each session, a white house light was turned on and a priming injection of 0.1 mg/kg methamphetamine (or saline for yoked group), sufficient to fill the “dead” space of the IV catheter, was automatically delivered. Rats learned to self-administer methamphetamine under one-response, fixed ratio schedule (FRI) of i.v. methamphetamine injection with 30-s time-out duration.

[15] = skeletal muscle, rats self-administering methamphetamine vs controls
[16] = skeletal muscle, self-administering rats vs controls

Clc1ccccc1C(c1ccccc1)(c1ccccc1)n1ccnc1 [clotrimazole]
baseline ceramide content ([1]; MEF without methamphetamine, inhibitor 10 μM, n=3, […]): 49.2±3 pmol-mg^−1 protein
methamphetamine-induced ceramide accumulation ([1]; MEF, inhibitor 1-10 μM): decreased
release of ROS evoked by methamphetamine [2]: prevented
levels of non-metabolized methamphetamine [3]: increased

CN[C@@H](C)Cc1ccccc1 [methamphetamine, S(+)-methylamphetamine HCl]
CerS activity [4]: increased
CerS activity [5]: increased
ceramide (d18:1/16:0) content ([1]; incubation of MEF with the drug alone): increased ceramide (d18:1/16:0) in a dose-dependent manner
long chain ceramides (d18:1/24:0 and d18:1/24:1) [6]: mitochondrial specific increase
short chain ceramide (d18:1/16:0) [6]: increases
mRNA levels of the genes involved de novo ceramide biosynthesis ([7]; MEF treated with methamphetamine): increased
p21 and p53 transcription ([7]; MEF, methamphetamine treatment): increase
number of SA-β-gal positive cells ([8]; passage 1 to 4, vs vehicle-treated cells): increased
increase in the number of SA-β-gal positive cells ([8]; passage 3, versus non-treated cells): greater than 4 fold
number of SA-β-gal positive cells ([8]; passage 5): did not further increase
cell morphology [9]: morphological changes typical of senescent phenotype
number of population doublings [10]: decreased
DNA synthesis, [3H]-thymidine [11]: decreased
striatal levels of various ceramide species ([12]; dorsal striatum, 2×10 mg/kg intraperitoneal): marked increase
changes in ceramide species ([12]; low doses (i.e., non-toxic)): did not induce any changes
ceramide levels in peripheral tissues ([12]; plasma, skeletal muscle, heart, liver and skin, 2×10 mg/kg intraperitoneal): marked increases
d18:1/16:0 ceramide levels ([12]; rat skeletal muscle, intraperitoneal 3, 10, and 20 mg/kg): dose-dependent increase
ceramide content [13]: increased
increase in ceramide (d18:1/16:0) [14, 15]: 4 fold
increase in dihydroceramide (d18:1/16:0) [14, 15]: 4 fold
levels of dihydrosphingomyelin (d18:1/16:0) [14, 16]: unchanged
levels of sphingomyelin (d18:1/16:0) [14, 16]: unchanged
multiple ceramide species ([14]; various tissues, largest increase in skeletal muscle, heart and liver, methamphetamine-exposed rats vs controls): substantially increased

— patent publication US20150148387A1, “METHODS OF TREATMENT, DIAGNOSIS AND […] METHA[…] WHICH TARGET CERAMIDE METABOLIC […] AND […] SENESCENCE” (priority 2012, published 2015)
